Measurements from patent US11390621B2, “Chiral indole compounds and their use” (ARIAGEN, INC., priority 2019, dated 2022).
Where “and” joins values, the source holds several entries; their conditions need not be identical. Equal entries are not always repeated. Where two headings read alike, the source gives them in different places.

Experiments:
[1] = In vivo pharmacokinetic studies in rats; design: species or system SD rats; details: rats; for AUC(0-t): read-out: AUClast
In short: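 Mice and rats (N=3/group) dosed IV at 2 mg/kg in DMSO or PO at 10, 30 or 40 mg/kg in PEG400/Tween 80 50/50; PEG400/Kolliphor HS15/oleic acid 45/45/10 used for one repeat-dose rat study. Repeat dosing in rats was PO 10 mg/kg QD for 5 days. Plasma sampled pre-dose to 24 h post-dose, measured by HPLC.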

[2] = Hepatocyte intrinsic clearance assay (metabolic stability), human hepatocytes; format: in vitro ADME; details: male, human, cryopreserved pooled hepatocytes, Human Hepatocytes, 1 μM test compound
In short: (§1)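 Cryopreserved pooled hepatocytes (1×10^6 cells/mL final) incubated with 1 μM compound at 37 °C, 5% CO2; samples at 0–120 min quenched in acetonitrile, analysed by LC-MS in duplicate. t1/2 and CLint from ln(% remaining) vs time slope; CLH via well-stirred liver model (fu=1) and EH derived from it.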

human hepatocytes = experiment: as above; format: in vitro ADME; details: Human Hepatocytes; well stirred liver model, fu=1
In short: as §1

rat hepatocytes = experiment: Hepatocyte intrinsic clearance assay (metabolic stability), rat hepatocytes; format: in vitro ADME
In short: as §1

[3] = as above; format: in vitro ADME; details: rat, cryopreserved hepatocytes, Rat Hepatocytes, 1 μM test compound
In short: as §1

[4] = SD, rat, plasma, po, 10 mg/kg, PO 10 mg/kg repeat dose, Day 1, Mean of 3 animals
[5] = Sprague-Dawley (SD), rat, plasma, po, 10 mg/kg, PO 10 mg/kg repeat dose, Day 1, individual animals (ID 4, 5, 6)
[6] = Sprague-Dawley (SD), rat, plasma, po, 10 mg/kg, PO 10 mg/kg repeat dose, Day 5, Mean of 3 animals
[7] = PO 10 mg/kg repeat dose, Day 1, individual animals (ID 4, 5, 6), 10 mg/kg
[8] = PO 10 mg/kg repeat dose, Day 5, individual animals (ID 4, 5, 6), 10 mg/kg

For `CC(C)(N)c1csc(C(=O)c2c[nH]c3cc(F)ccc23)n1` [ARI-226, (4-(2-aminopropan-2-yl)thiazol-2-yl)(6-fluoro-1H-indol-3-yl)methanone], the AUC(0-inf) [1, 4] was 832 ng·h/mL, the Cmax at 1 day [1, 4] was 112 ng/mL and the MRT inf at 1 day [1, 4] was 5.81 h. For the same compound, the half-life at 1 day [1, 4] was 137 min, the AUC(0-t) [1, 4] was 831 ng·h/mL and the Tmax at 1 day ([1]; SD, rat, plasma, po, 10 mg/kg, PO 10 mg/kg repeat dose, Day 1, Mean of 3 animals, read-out: Tmax) was 4 h. The Tmax at 5 days ([1]; SD, rat, plasma, po, 10 mg/kg, PO 10 mg/kg repeat dose, Day 5, individual animals (ID 4, 5, 6)) was 1 h, the MRT inf [1, 5] was 5.23 h and the half-life [1, 5] was 153 min. The Tmax ([1]; Sprague-Dawley (SD), rat, plasma, po, 10 mg/kg, PO 10 mg/kg repeat dose, Day 1, individual animals (ID 4, 5, 6), read-out: Tmax) was 4 h, the AUC(0-inf) [1, 6] was 38.7 ng·h/mL and the MRT inf [1, 6] was 3.01 h. It also gave a half-life [1, 6] of 98.4 min, an AUC(0-t) [1, 6] of 35.7 ng·h/mL and a Cmax ([1]; Sprague-Dawley (SD), rat, plasma, po, 10 mg/kg, PO 10 mg/kg repeat dose, Day 5, Mean of 3 animals, read-out: Cmax) of 9.78 ng/mL. For the same compound, the Tmax ([1]; Sprague-Dawley (SD), rat, plasma, po, 10 mg/kg, PO 10 mg/kg repeat dose, Day 5, Mean of 3 animals, read-out: Tmax) was 1.67 h, the half-life ([1]; Sprague-Dawley (SD), rat, plasma, po, 10 mg/kg, PO 10 mg/kg repeat dose, Day 5, individual animals (ID 4, 5, 6)) was 63 min and the “behaviour of exposure after 5 days of repeat dosing (in words)” value ([1]; 10 mg/kg PO QD for 5 days) was “increased elimination”. For the same compound, the MRTIast ([1]; PO 10 mg/kg repeat dose, Day 1, Mean of 3 animals) was 5.78 h, the AUCinf [1, 7] was 1280 ng·h/mL and 253 ng·h/mL and 963 ng·h/mL and the AUClast [1, 7] was 1280 ng·h/mL and 253 ng·h/mL and 963 ng·h/mL. The Cmax [1, 7] was 188 ng/mL and 28.4 ng/mL and 119 ng/mL, the MRTIast [1, 7] was 5.18 h and 5.96 h and 6.21 h and the MRTinf [1, 7] was 5.99 h and 6.22 h. For the same compound, the T1/2 [1, 7] was 2.39 h and 1.89 h, the MRTIast ([1]; PO 10 mg/kg repeat dose, Day 5, Mean of 3 animals) was 2.49 h and the AUCinf [1, 8] was 14.2 ng·h/mL and 54.7 ng·h/mL and 47.3 ng·h/mL. For the same compound, the AUClast [1, 8] was 13.0 ng·h/mL and 50.9 ng·h/mL and 43.2 ng·h/mL, the Cmax [1, 8] was 5.33 ng/mL and 13.2 ng/mL and 10.8 ng/mL and the MRTIast [1, 8] was 1.56 h and 2.76 h and 3.15 h. For the same compound, the MRTinf [1, 8] was 1.89 h and 3.31 h and 3.82 h, the T1/2 [1, 8] was 1.87 h and 2.01 h and the Tmax [1, 8] was 2 h. The half-life at 1 μM [2] was 180 min, the hepatocyte CLint at 1 μM [2] was 3.85 µL/min/1e6 cells and the “EH (hepatic extraction ratio)” value (human hepatocytes) was 15.8%. For the same compound, the “EH (hepatic extraction ratio)” value (rat hepatocytes; Rat Hepatocytes, well stirred liver model, fu=1) was 30.4%, the “CLint lower than that of ARI-164 (fold)” value (rat hepatocytes; rat hepatocytes) was “slightly lower” and the half-life at 1 μM [3] was 108 min. It also gave a hepatocyte CLint at 1 μM [3] of 6.54 µL/min/1e6 cells.
